Patent US20230313140A1, “METHOD FOR PREPARING T CELLS FOR ADOPTIVE T CELL THERAPY” (St. Jude Children's Research Hospital, Inc., priority 2022, published 2023)

Key:
ribosomal protein S6 = assay: General TORC1 activity measured by phosphorylation of ribosomal protein S6; format: cell-based, mouse; conditions: activated, undivided cells treated with dynein inhibitors
Excerpt: Murine CD8^+ T Lymphocytes. […] Immunofluorescence Staining and Imaging.

p-eIF4GI = assay: Imaging of polarization of p-eIF4GI in activated, undivided CD8+ T cells; conditions: Dynarrestin 25 μM, Ciliobrevin D 50 μM
Description: (§1) Murine CD8^+ T Lymphocytes. For CD8^+ T cell stimulation, splenocytes obtained from wild-type animals were enriched for antigen presenting cells (APCs) using CD11c MicroBeads (Miltenyi Biotec) and pulsed with 5 nM of [sequence] peptide (SEQ ID NO:1; AnaSpec Inc.) for 1 hour at 37° C. CD8^+ T cells were isolated from lymph nodes using the Dynabeads Untouched Mouse CD8 Cells Kit (Invitrogen) and overlain onto the peptide-pulsed APCs. Alternatively, CD8^+ T cells were stimulated on plate-bound anti-CD3ε (1 μg/ml, Bio X Cell), anti-CD28 (1 μg/ml, Bio X Cell), and recombinant human ICAM (0.5 μg/ml) produced in insect cells (Huppa et al. (2010) Nature 463:963-967); or by incubation with PMA (10 ng/ml, MedChemExpress) and Ionomycin (1 μM, MedChemExpress). Whenever assessment of cell division was required, CD8^+ T cells were labeled with a fluorescent dye sold under the tradename CELLTRACE® Violet (CTV) Cell Proliferation Kit (Invitrogen) at 5 μM per 1×10^7 cells for 10 minutes at 37° C. […]
(§2) The distribution of proteins in undivided cells was analyzed using Imaris 9.5 software (Oxford Instruments).

cytosolic c-Myc = assay: Imaging of polarization of cytosolic c-Myc in activated, undivided CD8+ T cells; conditions: Dynarrestin 25 μM, Ciliobrevin D 50 μM
Description: as §1, §2

TORC1 = assay: Imaging of polarization of TORC1 activity (phospho-mTOR) in activated, undivided CD8+ T cells; conditions: Dynarrestin 25 μM, Ciliobrevin D 50 μM
Description: as §1, §2

Sirt1 = assay: Immunofluorescence imaging of Sirt1 distribution between dividing sister cells; conditions: silvestrol 200 nM or Hippuristanol 500 nM, last hour of activation
Description: (§3) Murine CD8^+ T Lymphocytes. For CD8^+ T cell stimulation, splenocytes obtained from wild-type animals were enriched for antigen presenting cells (APCs) using CD11c MicroBeads (Miltenyi Biotec) and pulsed with 5 nM of [sequence] peptide (SEQ ID NO:1; AnaSpec Inc.) for 1 hour at 37° C. CD8^+ T cells were isolated from lymph nodes using the Dynabeads Untouched Mouse CD8 Cells Kit (Invitrogen) and overlain onto the peptide-pulsed APCs. […] Whenever assessment of cell division was required, CD8^+ T cells were labeled with a fluorescent dye sold under the tradename CELLTRACE® Violet (CTV) Cell Proliferation Kit (Invitrogen) at 5 μM per 1×10^7 cells for 10 minutes at 37° C. For in vivo stimulation, CTV-labeled CD8^+ T cells were transferred by tail vein injection of wild-type recipients. Twenty-four hours after transfer, recipients were immunized by subcutaneous injection of 50 μg of [sequence] peptide (SEQ ID NO:1) into the neck region. Donor cells were obtained from axillary and brachial lymph nodes 8 hours after immunization. CD8^+ T cells were cultured in RPMI 1640 (Gibco) supplemented with 10% (v/v) heat-inactivated fetal bovine serum (FBS), lx MEM non-essential amino acids (Gibco), 1 mM Sodium pyruvate (Gibco), 2 mM L-glutamine (Gibco), 55 μM 2-mercaptoethanol (Gibco), 50 U/ml penicillin and 50 μg/ml streptomycin (Corning) at 37° C. in 5% CO2. […]

[1] = test system: c-Myc association with RPL26 and S6; assay: STORM analysis of c-Myc translating polysomes; format: cell-based, mouse; conditions: brief treatment, 91 μM
Description: Murine CD8^+ T Lymphocytes. […] Stochastic Optical Reconstruction Microscopy (STORM). […] PFA was added to the culture at a final concentration of 4% (v/v), the cell suspension was transferred into […], and fixation continued for 10 minutes at RT. During all sample preparation, cells were pelleted for 3 minutes at 2000 rpm between each buffer. […] Reactive groups were quenched in 20 mM glycine, and non-specific antibody binding was blocked in TBS+2% BSA. […] Cells were washed with TBS and incubated with the following secondary antibodies for 1 hour at RT: CF488-labeled donkey anti-rat (1:1000, Biotium), CF568-labeled donkey anti-Goat (1:1000, Biotium), and AF647-labeled donkey anti-rabbit (1:1000, Jackson ImmunoResearch). Following two washes with TBS, cells were post-fixed in 1% (v/v) PFA for 5 minutes at RT, pelleted and resuspended in 20 μl cell culture matrix sold under […] drop of the cell suspension was placed into a cryomold, overlaid with Tissue Freezing Medium (Fisher Scientific Company) and snap frozen on dry ice. […] cryosections were placed on poly-L-lysine coated #1.5 18-mm coverslips (Electron Microscopy Sciences) and affixed to 35-mm dishes (Mattek) using epoxy resin. […] At least 25 cells from two independent experiments were analyzed. […]

c-Myc = assay: Immunofluorescence imaging of c-Myc distribution in first-division sister cells; conditions: treatment immediately prior to the first division (last hour of activation); silvestrol 200 nM, Hippuristanol 500 nM
Description: as §3

GFP-c-Myc = format: cell-based, mouse; conditions: sorted first-division cells treated for 2 hours, 200 nM
[2] = test system: c-Myc bound to chromatin at c-Myc binding sites; assay: CUT&RUN ChIP-seq of c-Myc bound to chromatin in first-division CD8+ T cells; format: cell-based, mouse; conditions: brief treatment of activated CD8+ T cells; 200 nM, 2 hours; chromatin immunoprecipitation
Description: CHIP-Sequencing. First-division CD8^+ T cells were sorted into medium with or without 200 nM silvestrol and cultured for additional 2 hours. CUT&RUN ChIP-seq experiments were performed as previously described (Meers et al. (2019) Elife 8) with slight modifications. […] Libraries were quantified using Qubit and size distribution was determined by Agilent 4200 TapeStation analysis before 15 million paired-end sequencing was performed.
Analysis for CHIP-seq Data. Paired-end sequencing reads were trimmed with Trim Galore (version 0.5.0) with default parameters. Reads were aligned to the reference mouse mm10 assembly using Bowtie 2 (version 2.3.5.1) (Langmead & Salzberg (2012) Nat. Methods 9:357-359) with settings—end-to-end—very-sensitive—nomixed—no-discordant-q—phred33-I 10-X 700. The resulting alignments, recorded in BAM file, were sorted, indexed, and marked for duplicates with Picard MarkDuplicate function (version 2.19.0, Broad Institute). […] C-Myc occupancy was normalized by scaling to 1 million mapped reads using BEDTools (version 2.27.1) (Quinlan & Hall (2010) Bioinformatics 26:841-842) and bedGraphToBigWig (version 377) (Kent et al. (2010) Bioinformatics 26:2204-2207) and visualized as heatmaps using deepTools plotHeatmap (version 3.2.1) (Ramirez et al. (2016) Nucl. Acids Res. 44:W160-165).

[3] = test system: first-division c-Myc^high CD8+ T cells; assay: Adoptive transfer and in vivo influenza infection and challenge, donor cell frequency; design: species or system mouse; conditions: c-Myc^high cells treated 2 hours with 200 nM after sorting, transferred into recipients; A/X-31-OVA day 0, challenge day 30; spleen

SMILES | TORC1 activity in general, phosphorylation of ribosomal protein S6 (ribosomal protein S6) | polarization of p-eIF4GI (p-eIF4GI) | polarization of cytosolic c-Myc (cytosolic c-Myc) | polarization of TORC1 (TORC1) | Sirt1 protein distribution between dividing sister cells (Sirt1) | other results
N#CC(=C(O)c1ccc(Cl)cc1Cl)c1nc2cc(Cl)ccc2c(=O)[nH]1 [Ciliobrevin D] | remained unaffected | abrogated the polarization | abrogated the polarization | abrogated the polarization | – | –
CCOC(=O)c1sc(Nc2ccc(F)cc2F)nc1-c1ccc(N(CC)CC)cc1 [Dynarrestin] | remained unaffected | abrogated the polarization | abrogated the polarization | abrogated the polarization | – | –
C[C@H]1C[C@@]2(O[C@H]3C[C@H]4[C@@H]5CC[C@H]6C[C@H](O)CC[C@]6(C)[C@H]5[C@@H](O)C[C@]4(C)[C@H]3[C@@]2(C)O)OC1(C)C [Hippuristanol] | – | – | – | – | unaffected | –
COc1ccc(C[C@H](N)C(=O)N[C@H]2[C@@H](O)[C@H](n3cnc4c(N(C)C)ncnc43)O[C@@H]2CO)cc1 [puromycin] | – | – | – | – | – | association of c-Myc with RPL26 and S6 [1]: significantly reduced
COC(=O)[C@H]1[C@@H](O)[C@@]2(O)c3c(OC)cc(O[C@@H]4O[C@@H]([C@H](O)CO)CO[C@H]4OC)cc3O[C@@]2(c2ccc(OC)cc2)[C@@H]1c1ccccc1 [silvestrol] | – | – | – | – | unaffected | c-Myc asymmetry in first-division sister cells (c-Myc): rapid equilibration of c-Myc levels; c-Myc levels in c-Myc^high cells (GFP-c-Myc MFI, FIG. 1) (GFP-c-Myc): reduce c-Myc levels in c-Myc^high cells to those observed in c-Myc^low cells; c-Myc bound to chromatin at c-Myc binding sites [2]: greatly reduced; frequency of donor cells on day 9 after A/PR/8-OVA challenge (FIG. 2) [3]: detected at numbers comparable to those found for sorted c-Myc^low cells
